# Laboratory results taken from article PMC10802587 (bioRxiv, 2024).
# “Also recorded” adds a separate entry of the source. Where two headings read alike, the source gives them in different places.
# Key:
# [1] = tested on: global palmitoylation in infected red blood cells; assay: Global palmitoylation; type: cell-based, P. falciparum; conditions: after 16 hours 17-ODYA incubation
# hMAGL = biological target: T1, hMAGL (Homo sapiens, UniProt Q99685); assay: hMAGL inhibition assay; type: biochemical
# T1 sequence (Q99685 1-303): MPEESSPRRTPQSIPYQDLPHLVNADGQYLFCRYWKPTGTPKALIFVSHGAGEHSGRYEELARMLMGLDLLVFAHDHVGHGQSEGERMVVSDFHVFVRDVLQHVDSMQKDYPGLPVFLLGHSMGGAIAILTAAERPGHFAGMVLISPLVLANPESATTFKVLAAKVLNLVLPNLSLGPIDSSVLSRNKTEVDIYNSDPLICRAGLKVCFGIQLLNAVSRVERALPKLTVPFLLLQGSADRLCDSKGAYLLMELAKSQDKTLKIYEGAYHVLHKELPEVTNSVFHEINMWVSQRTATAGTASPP
# [2] = tested on: synchronized ring stage W2 parasites; assay: 72-hour parasite growth; type: cell-based, P. falciparum; conditions: for EC50: Plasmodium falciparum
# recombinant PfMAGL = recombinant PfMAGL (Plasmodium falciparum, UniProt Q8IJ22); type: biochemical, P. falciparum
# W2 ring stage cultures [3] = assay: Stage specific killing assay; type: cell-based, P. falciparum; conditions: 10 μM, ring stage W2 parasites, smears every twelve hours
# 3D7 ring-stage parasites [4] = assay: P. falciparum rate of kill assay; type: cell-based; conditions: compared with chloroquine, pyrimethamine, atovaquone
# [5] = tested on: Human Foreskin Fibroblasts; assay: Human cell cytotoxicity assay; type: cell-based; conditions: at concentrations up to 50 μM, 72 h, HFF
# [6] = tested on: synchronized W2 ring stage parasites; assay: Lipidomic analysis of treated parasites; type: cell-based, P. falciparum; conditions: 900 nM, 24 hours versus DMSO (Figure 5B)
# parasite food vacuole = assay: Food vacuole visualization; type: cell-based, P. falciparum; conditions: 5 μM for 16 hrs; reduction not significant
# [7] = tested on: SalA resistant Dd2-Polδ lines (PRELI domain-containing protein mutants); assay: In vitro drug susceptibility assay, SalA selected PRELI mutant lines; type: cell-based, P. falciparum
# [8] = tested on: abH112 cKD and control NF54 parasites; assay: Susceptibility of abH112 cKD and NF54 parasites +/- aTC; type: cell-based, P. falciparum; conditions: presence and absence of aTC
# W2 ring stage cultures [9] = conditions: ref Yoo et al., 2020; cited from earlier work
# 3D7 ring-stage parasites [10] = conditions: known fast, medium, slow acting inhibitors; ref Sanz et al., 2012; cited from earlier work
# [11] = 72 h, read-out: EC50 parasite growth
# Sequence of recombinant PfMAGL (Q8IJ22 1-359): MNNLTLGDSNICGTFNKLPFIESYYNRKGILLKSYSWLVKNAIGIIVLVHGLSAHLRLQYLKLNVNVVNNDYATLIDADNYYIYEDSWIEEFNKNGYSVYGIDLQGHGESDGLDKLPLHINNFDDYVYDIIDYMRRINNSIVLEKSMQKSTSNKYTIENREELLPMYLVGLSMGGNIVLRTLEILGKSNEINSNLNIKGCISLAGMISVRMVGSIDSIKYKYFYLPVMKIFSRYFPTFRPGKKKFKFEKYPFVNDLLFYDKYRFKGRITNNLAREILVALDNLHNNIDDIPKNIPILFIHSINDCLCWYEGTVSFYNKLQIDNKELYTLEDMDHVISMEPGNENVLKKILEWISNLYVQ
structure (smiles),measurement,setting,value
"CCCCCCCCCCCCCCC(Br)C(=O)O (stereo not drawn) [Compound 2-BP, 2-bromopalmitate, reference compound]",changes in global palmitoylation,[1],changes in patterns of palmitoylation
C#CCCCCP(=O)(OCC)Oc1ccc(S(=O)(=O)F)cc1 (stereo not drawn) [Compound 2],potency against hMAGL (in words),hMAGL,highest potency
same,EC50,[2]; [11],1600 nM
CCCCCCCCCCCCCCCP(=O)(OCC)Oc1c(F)cccc1F (stereo not drawn) [Compound 21],potency against recombinant PfMAGL (in words),recombinant PfMAGL,picomolar inhibitors; also recorded: pM inhibitors
same,parasite killing,"[2]; at concentrations up to 20 μM, 72 hours, W2",no killing
same,blood stage where growth was arrested,W2 ring stage cultures [3],progressed through the blood stage lifecycle
same,changes in global palmitoylation,[1],did not observe any changes in global palmitoylation
CCCCCCCCCCCCCCCP(=O)(OCC)Oc1cc(F)cc(F)c1 (stereo not drawn) [Compound 22],potency against recombinant PfMAGL (in words),recombinant PfMAGL,picomolar inhibitors; also recorded: pM inhibitors
same,rescue of killing phenotype by palmitate and oleate supplementation,"[2]; 5 µM compound, 30 µM palmitate, oleate or both, 72 hours",did not rescue
same,"drop in potency, 1 hour pulse compared to continuous treatment",[2]; 1 hour treatment followed by washout,ten-fold drop in potency
same,EC50,[2]; [11],188 nM
same,EC50,[2]; read-out: EC50 after 1 hour treatment and washout,1330 nM
same,rate of kill (in words),3D7 ring-stage parasites [4],"faster than pyrimethamine, but not as fast as chloroquine"
same,impact on mammalian cell viability,[5],no impact on mammalian cell viability
same,blood stage where growth was arrested,W2 ring stage cultures [3],arrested in growth at 24 hours
same,changes in lipid classes,[6],downregulation of both ceramides and diacylglycerides
same,food vacuole size,parasite food vacuole,small reduction in food vacuole size
same,"increase in EC50, PRELI mutant parasites compared to Dd2-Polδ parental line",[7],7–10 fold
same,effect of abH112 knockdown on parasite susceptibility to compound,[8],did not affect parasite susceptibility
same,changes in global palmitoylation,[1],did not observe any changes in global palmitoylation
CCCCCCCCCCC[C@@H](C[C@@H]1OC(=O)[C@H]1CCCCCC)OC(=O)[C@H](CC(C)C)NC=O [Orlistat],blood stage where progression is blocked,W2 ring stage cultures [9],block progression at the late schizont stage
O=C1C(O)=C([C@H]2CC[C@H](c3ccc(Cl)cc3)CC2)C(=O)c2ccccc21 [atovaquone],rate of kill class of known inhibitors,3D7 ring-stage parasites [10],slow
CCN(CC)CCCC(C)Nc1ccnc2cc(Cl)ccc12 (stereo not drawn) [chloroquine],rate of kill class of known inhibitors,3D7 ring-stage parasites [10],fast
CCc1nc(N)nc(N)c1-c1ccc(Cl)cc1 [pyrimethamine],rate of kill class of known inhibitors,3D7 ring-stage parasites [10],medium
